According to US11746103B2, “ALK-5 inhibitors and uses thereof” (Sumitomo Pharma Oncology, Inc., priority 2020, dated 2023):
Entries after “also recorded” stand apart in the source; their conditions may differ.

What was measured:
[1] = test system: ES-2-luc cells; experiment: ES-2 survival study (ovarian cancer xenograft); format: in vivo, mouse; conditions: 150 mg/Kg twice a day, P.O.
Source text: Ovarian cancer is still associated with poor prognosis and remains among the leading causes of oncology-related deaths in females. High recurrence rates, resistance to chemotherapy and meager outcome highlight the need for improved therapies that stem from understanding the complex and multifactorial etiology of ovarian malignancies. TGF-01 signaling within tumor microenvironment regulates important steps in ovarian cancer progression such as epithelial to mesenchymal transition, dissemination, and metastasis. Inhibition of TGF-01 signaling pathway has shown a potential as a pharmaceutical target in ovarian malignancies. ES-2 ovarian cancer mouse xenograft model was used to test efficacy of EX-11 in ovarian cancer, as measured by improvement in survival.
(§1) Sixteen-week-old female athymic nude mice were injected with two million ES-2-luc cells. […]
(§2) Mortality was recorded for animals found dead in the cage, and for the animals sacrificed based on humane end point based on main three criteria—loss of mobility and response, wasting with pronounced ascites fluid buildup, and palpable drop in body temperature (animals were assessed as cold to touch when handled in gloves).
(§3) On study day 22, the remaining surviving animals in the vehicle group were determined moribund, and the study was terminated based on humane end point criteria. […]

[2] = test system: pSmad2 in KGN cells; experiment: pSmad2 Luminex assay in KGN cell line; format: cell-based; conditions: 2 hours, read-out: pSmad2 pathway inhibition
Procedure: KGN cells were incubated with three 10-fold dilutions of EX-11 or DMSO for 2 hours. Cells were harvested and lysed, and protein concentration was quantified by BCA. 10 μg of total protein was added to the assay plate provided in the Milliplex TGFβ 6-plex kit with GAPDH MapMate beads, and the manufacturer's protocol was followed. Data was collected on the MagPix Xmap (Luminex).

[3] = test system: cancer associated fibroblast (CAF) genes in human primary dermal fibroblasts; experiment: CAF gene suppression assay (qPCR); format: cell-based
Procedure: Human primary dermal fibroblasts (ATCC) were divided into four groups: DMSO-TGFβ, DMSO+TGFβ (1 ng/mL), 30 nM EX-11+TGFβ (1 ng/mL), and 300 nM EX-11+TGFβ (1 ng/mL). Cells were treated for 24 hours, then mRNA was extracted, quantified, and reverse transcribed. qPCR was run for the following cancer associated fibroblast (CAF) genes: ACTA2, FAP, ITGB1, CD9, TAGLN, ANTXR1, SOC1, Lamp5, Col1A2, and TGFβ1, using the TaqMan system in a Quant Studio.

[4] = test system: ES-2-luc cells; experiment: Cachexia model (ES-2 clear cell carcinoma); format: in vivo, mouse; conditions: 150 mg/Kg BID
Source text: TGF-β1 signaling regulates ovarian cancer progression during initial carcinogenesis, tumor dissemination, and reestablishment of ascites through peritoneal cavity. Clear cell carcinoma is a specifically aggressive and therapy-resistant subtype of epithelial ovarian cancer. ES-2 clear cell carcinoma in vivo model was used to test efficacy of EX-11 in reducing ovarian tumor burden as determined by ascites fluid volume assessment. Because ALK5 signaling can regulate muscle growth and wasting, the efficacy of EX-11 in preventing ovarian cancer-induced cachexia was tested. Muscle health was assessed using histological evaluation of heart muscle tissue, and by comparison of gross weight of hind limb between the different treatment groups.
as §1, §2, §3

[5] = test system: HLA class I expression in KGN cells; experiment: HLA expression in KGN cell line (flow cytometry); format: cell-based, human; conditions: 72 hours
Procedure: KGN cells were treated with 30 nM EX-11, 300 nM EX-11 or DMSO in the absence or presence of 1 ng/mL TGFβ for 72 hours. Cells were then washed, collected and incubated in the dark at 4° C. for 1 hour with a pan HLA class I antibody conjugated to PE (BD Pharmingen cat #560168). The cells were washed and analyzed by flow cytometry on an Attune N×T.

[6] = test system: Cloudman S91 melanoma; experiment: Cloudman S91 melanoma syngeneic study; conditions: single agents
Procedure: The objective of this study was to evaluate preclinically the in vivo therapeutic efficacy of EX-11+/−anti-PD-1 therapy for the treatment of subcutaneous Cloudman S91 melanoma model in DBA/2 mice.
Female, DBA/2 mice (aged 7-9 weeks) were inoculated subcutaneously in the right flank region with Cloudman S91 melanoma cells (2×10^5) in 0.1 ml of PBS. Once the mean tumor size reached approximately 100 mm^3 (day 19), 60 mice were randomized to 6 treatment arms (10 mice per arm).
The anti-PD-1 inhibitor used in this study was a product of Crownbio/OEM (Cat #: CVP033, Lot #: 0920L765). The vehicle for the anti-BD-1 inhibitor was PBS. The drug was injected intraperitoneally (i.p.), bi-weekly (BIW) for 3 weeks. The vehicle for EX-11 was 1000 tween-20, 900% ddH2O. The vehicle used for EX-11 was also used for the “Vehicle” arm of the study. EX-11 and the vehicle were delivered via oral gavage (p.o.), bi-daily (BID) for 21 days.
Body weights and tumor volumes were measured 3 times per week. Tumor volumes were measured in two dimensions using a caliper, and the volume was expressed in mm^3 using the formula: V=(L×W×W)/2, where V is tumor volume, L is tumor length (the longest tumor dimension) and W is tumor width (the longest tumor dimension perpendicular to L).
The study was terminated 50 days post-inoculation. […]

SMILES: Cc1cccc2c(Nc3ccnc(Nc4cccc(N5CCOCC5)c4)n3)cnnc12 [EX-11, N4-(8-methylcinnolin-4-yl)-N2-(3-morpholinophenyl)pyrimidine-2,4-diamine]
- overall survival compared with vehicle-treated animals [1]: significantly increased; also recorded: significantly improved
- inhibition at 0.01 µM ([2]; Homo sapiens, 10 nM): 17%
- inhibition at 0.1 µM ([2]; Homo sapiens, 100 nM): 74%
- inhibition at 1 µM ([2]; Homo sapiens, 1,000 nM): 97%
- TAGLN, Lamp5 and TGFβ1 expression ([3]; 300 nM + TGFβ 1 ng/mL): returned to baseline
- decrease of FAP, SDC1 and Col1A2 expression from baseline ([3]; 300 nM + TGFβ 1 ng/mL): 20-30%
- TGFβ-induced upregulation of CAF gene expression ([3]; 30 and 300 nM + TGFβ 1 ng/mL, 24 hours, all genes except CD9): dose dependently reversed
- ascites fluid volume compared to vehicle [4]: reduction in total fluid volume; also recorded: reduced ascites fluid volume
- whole hind limb weight compared to vehicle [4]: recorded higher; also recorded: improved hind limb weight retention
- HLA class I expression repressed by TGFβ stimulation ([5]; 30 nM, 300 nM + 1 ng/mL TGFβ): reversed
- increase of HLA class I expression ([5]; absence of TGFβ): up to 2 fold
- survival compared with the vehicle control [6]: did not exhibit an increase in survival
